# Results: patent publication US11702404B2, “GLP-1R modulating compounds” (priority 2019, dated 2023)
# What was measured:
# [1] = Microsomal stability, human liver microsomes (predicted hepatic clearance); settings: predicted from in vitro microsomal stability data
# GLP-1R = GLP-1R (Homo sapiens, UniProt P43220); assay: GLP-1R activation: cAMP increase in CHO cells stably expressing GLP-1R; type: cell-based; settings: cAMP increase, CHO cells stably expressing GLP-1R, 10 point dose response, 30 minutes incubation; read-out: EC50
# Chain of GLP-1R (P43220 24-463): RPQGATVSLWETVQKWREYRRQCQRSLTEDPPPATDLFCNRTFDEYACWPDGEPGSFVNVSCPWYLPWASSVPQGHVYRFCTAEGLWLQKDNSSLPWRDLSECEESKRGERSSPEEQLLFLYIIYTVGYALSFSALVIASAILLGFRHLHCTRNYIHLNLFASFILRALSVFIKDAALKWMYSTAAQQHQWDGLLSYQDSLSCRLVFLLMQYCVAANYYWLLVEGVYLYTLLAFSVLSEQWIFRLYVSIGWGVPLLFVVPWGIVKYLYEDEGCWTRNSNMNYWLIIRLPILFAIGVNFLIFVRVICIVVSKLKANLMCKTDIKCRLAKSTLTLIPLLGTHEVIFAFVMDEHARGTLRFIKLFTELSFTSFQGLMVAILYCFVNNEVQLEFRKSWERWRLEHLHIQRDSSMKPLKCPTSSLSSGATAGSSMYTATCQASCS
Predicted Hepatic Clearance (Pred. Cl.) [1],EC50 (GLP-1R),Compound
12 mL/min/kg,6.01 nM,"COCCn1c(Cc2c(F)cc(-c3cccnc3OCc3ccc(C#N)cc3OC)cc2F)nc2ccc(C(=O)O)cc21 [Example 118, 2-(4-(2-((4-cyano-2-methoxybenzyl)oxy)pyridin-3-yl)-2,6-difluorobenzyl)-1-(2-methoxyethyl)-1H-benzo[d]imidazole-6-carboxylic acid]"
<1.83 mL/min/kg,0.56 nM,"COc1cc(C#N)ccc1COc1nccc(-c2cc(F)c(Cc3nc4ccc(C(=O)O)nc4n3CC3(CF)CC3)cc2F)n1 [Example 119, 2-(4-(2-((4-cyano-2-methoxybenzyl)oxy)pyrimidin-4-yl)-2,5-difluorobenzyl)-3-((1-(fluoromethyl)cyclopropyl)methyl)-3H-imidazo[4,5-b]pyridine-5-carboxylic acid]"
<1.83 mL/min/kg,1.24 nM,"O=C(O)c1ccc2nc(Cc3cc(F)c(-c4ccnc(OCc5ccc(Cl)cc5F)n4)cc3F)n(CC3(CF)CC3)c2n1 [Example 120, 2-(4-(2-((4-chloro-2-fluorobenzyl)oxy)pyrimidin-4-yl)-2,5-difluorobenzyl)-3-((1-(fluoromethyl)cyclopropyl)methyl)-3H-imidazo[4,5-b]pyridine-5-carboxylic acid]"
2.67 mL/min/kg,0.66 nM,"N#Cc1ccc(COc2nccc(-c3cc(F)c(Cc4nc5ccc(C(=O)O)cc5n4C[C@@H]4CCO4)c(F)c3)n2)c(F)c1 [Example 121, (S)-2-(4-(2-((4-cyano-2-fluorobenzyl)oxy)pyrimidin-4-yl)-2,6-difluorobenzyl)-1-(oxetan-2-ylmethyl)-1H-benzo[d]imidazole-6-carboxylic acid]"
<1.83 mL/min/kg,30.6 nM,"COCCn1c(Cc2ccc(-c3ccc(Cl)c(OCc4ccc(C#N)cc4F)n3)cc2F)nc2ccc(C(=O)O)cc21 [Example 122, 2-(4-(5-chloro-6-((4-cyano-2-fluorobenzyl)oxy)pyridin-2-yl)-2-fluorobenzyl)-1-(2-methoxyethyl)-1H-benzo[d]imidazole-6-carboxylic acid]"
5.17 mL/min/kg,3.12 nM,"C[C@]1(Cn2c(Cc3ccc(-c4cccc(OCc5ccc(C#N)cc5F)n4)cc3F)nc3ccc(C(=O)O)cc32)CCO1 [Example 123, (R)-2-(4-(6-((4-cyano-2-fluorobenzyl)oxy)pyridin-2-yl)-2-fluorobenzyl)-1-((2-methyloxetan-2-yl)methyl)-1H-benzo[d]imidazole-6-carboxylic acid]"
3.17 mL/min/kg,0.67 nM,"COCCn1c(Cc2c(F)cc(-c3ncc(F)c(OCc4ccc(C#N)cc4F)n3)c(F)c2F)nc2ccc(C(=O)O)cc21 [Example 124, 2-(4-(4-((4-cyano-2-fluorobenzyl)oxy)-5-fluoropyrimidin-2-yl)-2,3,6-trifluorobenzyl)-1-(2-methoxyethyl)-1H-benzo[d]imidazole-6-carboxylic acid]"
2.58 mL/min/kg,0.34 nM,"N#Cc1ccc(COc2nc(-c3ccc(Cc4nc5ccc(C(=O)O)cc5n4C[C@@H]4CCO4)cc3F)ccc2F)c(F)c1 [Example 125, (S)-2-(4-(6-((4-cyano-2-fluorobenzyl)oxy)-5-fluoropyridin-2-yl)-3-fluorobenzyl)-1-(oxetan-2-ylmethyl)-1H-benzo[d]imidazole-6-carboxylic acid]"
4.67 mL/min/kg,3.7 nM,"COCCn1c(Cc2ccc(-c3ncc(F)c(OCc4ccc(C#N)cc4F)n3)cc2F)nc2ccc(C(=O)O)cc21 [Example 126, 2-(4-(4-((4-cyano-2-fluorobenzyl)oxy)-5-fluoropyrimidin-2-yl)-2-fluorobenzyl)-1-(2-methoxyethyl)-1H-benzo[d]imidazole-6-carboxylic acid]"
6.7 mL/min/kg,0.34 nM,"N#CCC1(Cn2c(Cc3ccc(-c4ncc(F)c(OCc5ccc(C#N)cc5F)n4)c(F)c3)nc3ccc(C(=O)O)cc32)CC1 [Example 127, 2-(4-(4-((4-cyano-2-fluorobenzyl)oxy)-5-fluoropyrimidin-2-yl)-3-fluorobenzyl)-1-((1-(cyanomethyl)cyclopropyl)methyl)-1H-benzo[d]imidazole-6-carboxylic acid]"
<1.83 mL/min/kg,0.51 nM,"N#Cc1ccc(COc2nc(-c3ccc(Cc4nc5ccc(C(=O)O)cc5n4C[C@@H]4CCO4)c(F)c3)ccc2F)c(F)c1 [Example 128, (S)-2-(4-(6-((4-cyano-2-fluorobenzyl)oxy)-5-fluoropyridin-2-yl)-2-fluorobenzyl)-1-(oxetan-2-ylmethyl)-1H-benzo[d]imidazole-6-carboxylic acid]"
3.17 mL/min/kg,0.7 nM,"N#CCC1(Cn2c(Cc3cc(F)c(-c4nc(OCc5ccc(C#N)cc5F)ncc4F)cc3F)nc3ccc(C(=O)O)nc32)CC1 [Example 129, 2-(4-(2-((4-cyano-2-fluorobenzyl)oxy)-5-fluoropyrimidin-4-yl)-2,5-difluorobenzyl)-3-((1-(cyanomethyl)cyclopropyl)methyl)-3H-imidazo[4,5-b]pyridine-5-carboxylic acid]"
5.5 mL/min/kg,0.11 nM,"N#CCC1(Cn2c(Cc3cc(F)c(-c4ccc(F)c(OCc5ccc(C#N)cc5F)n4)cc3F)nc3ccc(C(=O)O)nc32)CC1 [Example 130, 2-(4-(6-((4-cyano-2-fluorobenzyl)oxy)-5-fluoropyridin-2-yl)-2,5-difluorobenzyl)-3-((1-(cyanomethyl)cyclopropyl)methyl)-3H-imidazo[4,5-b]pyridine-5-carboxylic acid]"
4 mL/min/kg,0.08 nM,"N#Cc1ccc(COc2nc(-c3cc(F)c(Cc4nc5c(F)cc(C(=O)O)cc5n4C[C@@H]4CCO4)cc3F)ncc2F)c(F)c1 [Example 131, (S)-2-(4-(4-((4-cyano-2-fluorobenzyl)oxy)-5-fluoropyrimidin-2-yl)-2,5-difluorobenzyl)-4-fluoro-1-(oxetan-2-ylmethyl)-1H-benzo[d]imidazole-6-carboxylic acid]"
3.58 mL/min/kg,0.05 nM,"N#Cc1ccc(COc2nc(-c3ccc(Cc4nc5c(F)cc(C(=O)O)cc5n4C[C@@H]4CCO4)c(F)c3)ccc2F)c(F)c1 [Example 132, (S)-2-(4-(6-((4-cyano-2-fluorobenzyl)oxy)-5-fluoropyridin-2-yl)-2-fluorobenzyl)-4-fluoro-1-(oxetan-2-ylmethyl)-1H-benzo[d]imidazole-6-carboxylic acid]"
5.58 mL/min/kg,0.26 nM,"N#CCC1(Cn2c(Cc3cc(F)c(-c4ncc(F)c(OCc5ccc(C#N)cc5F)n4)cc3F)nc3ccc(C(=O)O)cc32)CC1 [Example 133, 2-(4-(4-((4-cyano-2-fluorobenzyl)oxy)-5-fluoropyrimidin-2-yl)-2,5-difluorobenzyl)-1-((1-(cyanomethyl)cyclopropyl)methyl)-1H-benzo[d]imidazole-6-carboxylic acid]"
<1.83 mL/min/kg,0.34 nM,"N#Cc1ccc(COc2nc(-c3ccc(Cc4nc5ccc(C(=O)O)cc5n4CC4(CF)CC4)c(F)c3)ccc2F)c(F)c1 [Example 134, 2-(4-(6-((4-cyano-2-fluorobenzyl)oxy)-5-fluoropyridin-2-yl)-2-fluorobenzyl)-1-((1-(fluoromethyl)cyclopropyl)methyl)-1H-benzo[d]imidazole-6-carboxylic acid]"
<1.83 mL/min/kg,1.76 nM,"COCCn1c(Cc2ccc(-c3cccc(OCc4ccc(C#N)c5ccoc45)n3)cc2F)nc2ccc(C(=O)O)cc21 [Example 135, 2-(4-(6-((4-cyanobenzofuran-7-yl)methoxy)pyridin-2-yl)-2-fluorobenzyl)-1-(2-methoxyethyl)-1H-benzo[d]imidazole-6-carboxylic acid]"
9 mL/min/kg,24.5 nM,"COCCn1c(Cc2ccc(-c3cccc(OCc4cccc5ccoc45)n3)cc2F)nc2ccc(C(=O)O)cc21 [Example 136, 2-(4-(6-(benzofuran-7-ylmethoxy)pyridin-2-yl)-2-fluorobenzyl)-1-(2-methoxyethyl)-1H-benzo[d]imidazole-6-carboxylic acid]"
4.83 mL/min/kg,32.2 nM,"COCCn1c(Cc2ccc(-c3cccc(OCc4cccc(C5CC5)c4)n3)cc2F)nc2ccc(C(=O)O)cc21 [Example 137, 2-(4-(6-((3-cyclopropylbenzyl)oxy)pyridin-2-yl)-2-fluorobenzyl)-1-(2-methoxyethyl)-1H-benzo[d]imidazole-6-carboxylic acid]"
7.5 mL/min/kg,84.7 nM,"COCCn1c(Cc2ccc(-c3cccc(OCc4cccc(OC(F)F)c4F)n3)cc2F)nc2ccc(C(=O)O)cc21 [Example 138, 2-(4-(6-((3-(difluoromethoxy)-2-fluorobenzyl)oxy)pyridin-2-yl)-2-fluorobenzyl)-1-(2-methoxyethyl)-1H-benzo[d]imidazole-6-carboxylic acid]"
7.17 mL/min/kg,26.4 nM,"COCCn1c(Cc2ccc(-c3cccc(OCc4cccc(OCC(F)F)c4)n3)cc2F)nc2ccc(C(=O)O)cc21 [Example 139, 2-(4-(6-((3-(2,2-difluoroethoxy)benzyl)oxy)pyridin-2-yl)-2-fluorobenzyl)-1-(2-methoxyethyl)-1H-benzo[d]imidazole-6-carboxylic acid]"
9.33 mL/min/kg,197 nM,"COCCn1c(Cc2ccc(-c3cccc(OCc4cccc(OC(F)F)c4OC)n3)cc2F)nc2ccc(C(=O)O)cc21 [Example 140, 2-(4-(6-((3-(difluoromethoxy)-2-methoxybenzyl)oxy)pyridin-2-yl)-2-fluorobenzyl)-1-(2-methoxyethyl)-1H-benzo[d]imidazole-6-carboxylic acid]"
5.5 mL/min/kg,80.3 nM,"COCCn1c(Cc2ccc(-c3cccc(OCc4cc(C(C)C)ccc4F)n3)cc2F)nc2ccc(C(=O)O)cc21 [Example 141, 2-(2-fluoro-4-(6-((2-fluoro-5-isopropylbenzyl)oxy)pyridin-2-yl)benzyl)-1-(2-methoxyethyl)-1H-benzo[d]imidazole-6-carboxylic acid]"
